The source made the active and inactive calls.
Columns and labels:
Protein Wnt-3a = Protein Wnt-3a (Mus musculus, UniProt P27467); experiment: antagonism of Wnt3a pathway luciferase reporter – Wnt-LIGHT cells, luminescence, selectivity assay for Gli-SUFU antagonist project, dose response (AID 651570); format: functional; conditions: read-out: IC50_Mean;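 note: Wnt-LIGHT reporter cells stimulated with conditioned medium from Wnt3a-producing cells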
[1] = biological target: Glucose-6-phosphate 1-dehydrogenase (Homo sapiens, UniProt P11413); experiment: inhibition of Homo sapiens G6PD, dose series – biochemical, fluorescence, selectivity assay for P. falciparum G6PD inhibitor project, dose response (AID 504792); format: functional
Sequence of Glucose-6-phosphate 1-dehydrogenase (P11413 whole entry): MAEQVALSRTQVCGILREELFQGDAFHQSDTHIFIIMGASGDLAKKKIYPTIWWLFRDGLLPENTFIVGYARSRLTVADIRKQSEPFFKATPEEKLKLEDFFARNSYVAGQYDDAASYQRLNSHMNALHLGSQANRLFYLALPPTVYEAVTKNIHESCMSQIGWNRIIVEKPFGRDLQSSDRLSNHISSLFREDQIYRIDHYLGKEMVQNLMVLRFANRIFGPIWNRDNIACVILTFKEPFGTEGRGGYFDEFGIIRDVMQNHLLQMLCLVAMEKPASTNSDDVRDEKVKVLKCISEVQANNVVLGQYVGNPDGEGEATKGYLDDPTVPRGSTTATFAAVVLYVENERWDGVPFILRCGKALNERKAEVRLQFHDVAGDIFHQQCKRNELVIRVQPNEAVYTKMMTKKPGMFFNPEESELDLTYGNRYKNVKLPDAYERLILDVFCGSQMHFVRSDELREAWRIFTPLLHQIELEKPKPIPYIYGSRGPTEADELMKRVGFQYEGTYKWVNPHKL

[2] = biological target: T1, Long-chain-fatty-acid--AMP ligase FadD28 (Mycobacterium tuberculosis, UniProt P9WQ59); experiment: Fluorescence polarization aasay to screen for inhibitors that compete for the binding of FadD28 to a bisubstrate Measured in Biochemical System Using Plate Reader - 2147-01_Inhibitor_Dose_CherryPick_Activity.; format: functional, Mycobacterium tuberculosis H37Rv
T1 sequence (P9WQ59 whole entry): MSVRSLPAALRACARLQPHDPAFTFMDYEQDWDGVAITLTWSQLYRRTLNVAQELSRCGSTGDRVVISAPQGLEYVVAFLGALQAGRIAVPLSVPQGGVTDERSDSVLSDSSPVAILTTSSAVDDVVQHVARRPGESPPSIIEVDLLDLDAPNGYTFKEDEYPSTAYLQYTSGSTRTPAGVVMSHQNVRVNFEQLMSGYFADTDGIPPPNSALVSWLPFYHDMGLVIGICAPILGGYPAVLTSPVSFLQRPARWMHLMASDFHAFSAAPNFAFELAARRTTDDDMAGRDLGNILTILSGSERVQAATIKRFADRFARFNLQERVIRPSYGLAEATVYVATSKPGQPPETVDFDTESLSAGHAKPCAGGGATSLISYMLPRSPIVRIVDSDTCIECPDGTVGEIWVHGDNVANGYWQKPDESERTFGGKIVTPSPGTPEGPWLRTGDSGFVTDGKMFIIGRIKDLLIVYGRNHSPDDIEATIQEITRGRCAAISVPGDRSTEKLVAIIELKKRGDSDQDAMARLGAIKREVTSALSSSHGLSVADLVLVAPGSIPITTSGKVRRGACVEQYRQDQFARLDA

[3] = biological target: SWI/SNF-related matrix-associated actin-dependent regulator of chromatin subfamily A member 2 (Homo sapiens, UniProt P51531); experiment: Luminescence-based cell-based high throughput dose response assay to identify activators of the function of SWI/SNF related, matrix associated, actin dependent regulator of chromatin, subfamily a, member 2 (SMARCA2, BRM).; format: functional
Sequence of SWI/SNF-related matrix-associated actin-dependent regulator of chromatin subfamily A member 2 (P51531 whole entry): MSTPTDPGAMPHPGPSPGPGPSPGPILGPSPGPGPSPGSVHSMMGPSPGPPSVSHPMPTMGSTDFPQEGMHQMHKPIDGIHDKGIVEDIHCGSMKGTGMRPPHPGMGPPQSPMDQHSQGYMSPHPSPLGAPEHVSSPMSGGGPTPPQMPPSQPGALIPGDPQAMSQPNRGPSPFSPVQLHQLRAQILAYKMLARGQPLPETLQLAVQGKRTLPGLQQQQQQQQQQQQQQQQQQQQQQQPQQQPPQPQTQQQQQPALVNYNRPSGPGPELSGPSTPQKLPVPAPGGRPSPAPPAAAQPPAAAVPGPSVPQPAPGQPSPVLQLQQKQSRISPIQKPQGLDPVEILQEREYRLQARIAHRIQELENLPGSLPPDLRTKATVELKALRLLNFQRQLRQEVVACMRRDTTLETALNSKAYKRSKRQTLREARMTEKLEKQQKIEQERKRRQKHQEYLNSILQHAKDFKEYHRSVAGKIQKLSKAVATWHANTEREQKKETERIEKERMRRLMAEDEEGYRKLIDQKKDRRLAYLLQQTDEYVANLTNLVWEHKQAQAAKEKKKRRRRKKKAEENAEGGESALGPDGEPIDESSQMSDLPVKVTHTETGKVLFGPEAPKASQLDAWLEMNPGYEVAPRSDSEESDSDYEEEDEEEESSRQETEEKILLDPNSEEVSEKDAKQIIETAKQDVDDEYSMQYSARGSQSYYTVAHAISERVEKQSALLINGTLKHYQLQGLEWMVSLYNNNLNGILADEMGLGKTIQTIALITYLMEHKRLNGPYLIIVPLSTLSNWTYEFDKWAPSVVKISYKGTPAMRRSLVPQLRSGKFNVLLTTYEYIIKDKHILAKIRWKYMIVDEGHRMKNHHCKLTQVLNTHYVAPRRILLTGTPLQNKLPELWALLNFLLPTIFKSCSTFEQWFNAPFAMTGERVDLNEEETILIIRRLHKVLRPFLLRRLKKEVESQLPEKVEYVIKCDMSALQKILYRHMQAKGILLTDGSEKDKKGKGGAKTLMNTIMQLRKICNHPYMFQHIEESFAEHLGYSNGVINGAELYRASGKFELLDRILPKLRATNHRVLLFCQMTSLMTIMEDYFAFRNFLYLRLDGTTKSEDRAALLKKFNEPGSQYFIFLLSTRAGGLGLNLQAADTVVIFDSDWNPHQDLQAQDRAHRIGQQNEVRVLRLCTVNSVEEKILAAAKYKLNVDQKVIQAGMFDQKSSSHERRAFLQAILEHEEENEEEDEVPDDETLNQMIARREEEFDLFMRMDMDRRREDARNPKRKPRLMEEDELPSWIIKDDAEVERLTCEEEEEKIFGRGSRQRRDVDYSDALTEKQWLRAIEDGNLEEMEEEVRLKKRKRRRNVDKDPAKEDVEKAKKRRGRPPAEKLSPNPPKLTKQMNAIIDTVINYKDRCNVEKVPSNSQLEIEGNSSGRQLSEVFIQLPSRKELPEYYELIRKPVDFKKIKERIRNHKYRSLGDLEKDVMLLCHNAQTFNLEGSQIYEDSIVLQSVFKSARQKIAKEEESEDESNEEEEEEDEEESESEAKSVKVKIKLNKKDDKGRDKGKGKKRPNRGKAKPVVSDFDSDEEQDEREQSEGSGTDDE

[4] = Counterscreen for activators of the function of SWI/SNF related, matrix associated, actin dependent regulator of chromatin, subfamily a, member 2 (SMARCA2, BRM): Luminescence-based cell-based high throughput dose response assay to identify non-selective compounds using the VP16 reporter assay.; format: functional
[5] = mammalian cell viability loss – Alamar Blue, dry powder, cytotoxicity control for antifungal single agent project, dose response (AID 602188); format: functional, cell-based
H9c2 = experiment: cells; format: functional, cell-based; conditions: Rattus norvegicus, H9c2, Myocardium;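 note: confirmatory concentration-response retest of ultra-high-throughput screening hits for modulation of myocardial damage; cell death induced by hydrogen peroxide oxidative stress; compound pretreatment for 60 min then peroxide exposure for 2 h; potency is for protecting the cells against peroxide damage rather than for killing them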
Vero = experiment: cells; format: functional; conditions: Chlorocebus sabaeus
[6] = NIH-3T3 fibroblast cytotoxicity, dose response, cytotoxicity control, cell-based, fluorescence, Alamar Blue, secondary assay (AID 2327); format: functional;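 note: NIH-3T3 mouse fibroblasts cultured with fluconazole at 8 µg/mL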
[7] = fluconazole-exposed Candida albicans growth modulators – fluorescence, retest, confirmation (AID 2467); format: functional, cell-based
[8] = biological target: ATP-dependent molecular chaperone HSP82 (Candida albicans (strain WO-1) (Yeast), UniProt C4YTQ8); experiment: steroid-induced GRE reporter decrease in yeast – S. cerevisiae, luminescence, Hsp90 inhibitor project, dose response (AID 2400); format: functional, cell-based;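 note: beta-galactosidase luminescence from glucocorticoid response element reporter as proxy for Hsp90 function; inhibitor potency where signal loss means Hsp90 inhibition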
Sequence of ATP-dependent molecular chaperone HSP82 (C4YTQ8 whole entry): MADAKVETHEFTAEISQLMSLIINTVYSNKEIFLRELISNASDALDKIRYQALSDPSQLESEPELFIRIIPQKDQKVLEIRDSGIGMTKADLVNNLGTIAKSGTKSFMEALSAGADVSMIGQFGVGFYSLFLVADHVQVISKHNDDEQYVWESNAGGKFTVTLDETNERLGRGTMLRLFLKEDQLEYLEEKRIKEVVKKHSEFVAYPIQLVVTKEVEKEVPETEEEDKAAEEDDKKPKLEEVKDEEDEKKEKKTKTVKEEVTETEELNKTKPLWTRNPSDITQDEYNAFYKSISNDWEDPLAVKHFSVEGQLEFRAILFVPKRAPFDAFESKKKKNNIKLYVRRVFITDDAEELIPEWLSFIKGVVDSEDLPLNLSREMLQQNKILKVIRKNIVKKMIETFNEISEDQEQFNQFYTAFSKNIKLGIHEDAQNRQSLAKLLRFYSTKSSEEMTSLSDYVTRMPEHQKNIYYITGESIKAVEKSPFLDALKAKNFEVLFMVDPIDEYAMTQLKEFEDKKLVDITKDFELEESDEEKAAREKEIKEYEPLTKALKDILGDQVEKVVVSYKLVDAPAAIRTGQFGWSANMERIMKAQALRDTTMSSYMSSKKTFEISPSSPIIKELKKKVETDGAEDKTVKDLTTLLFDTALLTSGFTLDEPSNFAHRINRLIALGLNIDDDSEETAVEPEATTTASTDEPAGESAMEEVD

[9] = biological target: T2, Serine/threonine-protein phosphatase (Candida dubliniensis (strain CD36 / CBS 7987 / NCPF 3949 / NRRLY-17841) (Yeast), UniProt B9W6M3); experiment: blockers of CaCl2-induced CDRE-lacZ signaling – S. cerevisiae, luminescence, secondary, dose response (AID 2388); format: functional, cell-based;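 note: yeast reporter cells carrying a calcineurin-responsive lacZ construct stimulated with calcium chloride; luminescent beta-galactosidase reporter signal in whole cells rather than isolated phosphatase activity; potency for inhibition where a drop in reporter signal means calcineurin blockade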
T2 sequence (B9W6M3 whole entry): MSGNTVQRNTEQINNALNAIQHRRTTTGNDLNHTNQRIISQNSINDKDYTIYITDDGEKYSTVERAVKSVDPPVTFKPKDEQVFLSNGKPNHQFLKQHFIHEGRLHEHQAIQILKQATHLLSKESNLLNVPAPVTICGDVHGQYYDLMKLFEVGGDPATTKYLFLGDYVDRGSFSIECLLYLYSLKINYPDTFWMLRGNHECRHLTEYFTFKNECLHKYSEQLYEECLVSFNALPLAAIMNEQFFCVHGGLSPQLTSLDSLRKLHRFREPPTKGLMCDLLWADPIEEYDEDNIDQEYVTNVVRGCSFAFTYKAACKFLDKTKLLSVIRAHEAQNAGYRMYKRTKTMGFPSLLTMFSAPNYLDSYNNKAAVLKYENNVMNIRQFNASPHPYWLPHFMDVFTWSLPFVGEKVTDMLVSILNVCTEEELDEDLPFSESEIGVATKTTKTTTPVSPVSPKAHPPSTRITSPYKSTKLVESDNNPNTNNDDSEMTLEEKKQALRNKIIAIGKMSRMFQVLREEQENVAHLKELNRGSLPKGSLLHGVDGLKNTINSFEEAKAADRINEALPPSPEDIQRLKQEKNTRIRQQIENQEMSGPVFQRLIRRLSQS

[10] = biological target: Voltage-dependent T-type calcium channel subunit alpha-1H (Homo sapiens, UniProt O95180); format: functional;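 note: channel activity triggered by adding a high calcium stimulation buffer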
[11] = biological target: T3, Mitochondrial peptide methionine sulfoxide reductase (Bos taurus, UniProt P54149); format: functional;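 note: absorbance read-out, biochemical high-throughput dose-response screen for MsrA inhibitors, confirmatory; recombinant bovine MsrA coupled to E. coli TrxB with NADPH and selenocystamine; potency is for inhibitors of MsrA activity on DMSO substrate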
T3 sequence (P54149 whole entry): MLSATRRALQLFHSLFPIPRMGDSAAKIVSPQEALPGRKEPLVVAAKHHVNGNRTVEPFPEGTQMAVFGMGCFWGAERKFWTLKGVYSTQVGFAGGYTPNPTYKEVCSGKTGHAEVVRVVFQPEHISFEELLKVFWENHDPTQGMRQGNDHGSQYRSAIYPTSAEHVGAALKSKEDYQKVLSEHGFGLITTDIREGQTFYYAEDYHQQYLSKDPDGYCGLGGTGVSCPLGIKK

[12] = activation of miR-122 Renilla sensor silencing – cell-based, Huh7 psiCHECK-miR122, Renilla luciferase, cherry-picked, dose response (AID 651956); format: functional;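 note: huh7 hepatoma cells stably carrying a psiCHECK-2 miR-122 sensor plasmid; renilla luciferase signal reporting endogenous miR-122 activity after 48 h compound exposure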
[13] = biological target: T4, Small ubiquitin-related modifier 1 (Homo sapiens, UniProt P63165); experiment: SUMO1 protein interaction blockers, potency – biochemical, fluorescence polarization, uHTS hits, dose response (AID 624382); format: functional; conditions: read-out: IC50_Mean
T4 sequence (P63165 whole entry): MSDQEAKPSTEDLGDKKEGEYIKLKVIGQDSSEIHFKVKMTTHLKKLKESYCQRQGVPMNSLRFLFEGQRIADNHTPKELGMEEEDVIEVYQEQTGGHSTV

[14] = biological target: T4, Small ubiquitin-related modifier 1; experiment: SUMO1 protein-protein binding blockers, potency – biochemical, FRET, dose response (AID 624383); format: functional; conditions: read-out: IC50_Mean
cells [15] = format: functional, cell-based
cells [16] = format: functional, cell-based; remark: listed apart in the source
[17] = Trypanosoma cruzi growth suppression in host cells – NIH3T3 host cells, beta-gal luminescence, confirmation (AID 2044); format: functional, cell-based;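 note: intracellular parasites grown in NIH/3T3 mouse fibroblasts as host cells; luminescent beta-galactosidase reporter signal from transgenic T. cruzi replicating inside host cells; inhibitors lower the luminescence signal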
INS1 = experiment: INS-1E survival protection against cytokine death – cell-based, luminescence, retest, dose response (AID 449756); format: functional; conditions: Rattus norvegicus;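 note: cell death triggered by IL-1 beta plus TNF-alpha plus IFN-gamma mixture; protective hits raise ATP signal compared with cytokine alone wells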
[18] = NIH3T3 cell viability loss – ATP luminescence, mouse fibroblasts, counter-screen, dose response (AID 2010); format: functional, cell-based;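 note: cells exposed to compound for about 90 hours before reading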
[19] = biological target: T5, COUP transcription factor 2 (Homo sapiens, UniProt P24468); experiment: Luminescence-based cell-based high throughput dose response assay to identify inhibitors of COUP-TFII (NR2F2).; format: functional;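 note: HEK293 cells transiently cotransfected with COUP-TFII expression vector and reporter; luciferase reporter luminescence driven by COUP-TFII from the pX2-168 reporter plasmid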
T5 sequence (P24468 whole entry): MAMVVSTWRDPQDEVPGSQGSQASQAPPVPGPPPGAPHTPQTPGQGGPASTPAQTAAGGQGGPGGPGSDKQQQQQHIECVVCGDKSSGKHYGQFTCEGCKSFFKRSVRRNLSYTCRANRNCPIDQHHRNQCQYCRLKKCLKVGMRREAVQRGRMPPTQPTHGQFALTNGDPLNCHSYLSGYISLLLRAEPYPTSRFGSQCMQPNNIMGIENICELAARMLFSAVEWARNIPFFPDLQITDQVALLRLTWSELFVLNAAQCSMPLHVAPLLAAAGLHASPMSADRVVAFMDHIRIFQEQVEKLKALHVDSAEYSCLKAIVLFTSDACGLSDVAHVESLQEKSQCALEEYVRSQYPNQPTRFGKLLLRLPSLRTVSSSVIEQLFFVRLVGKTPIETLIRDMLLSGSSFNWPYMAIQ

Melanocortin receptor 4 = Melanocortin receptor 4 (Homo sapiens, UniProt P32245); format: functional, cell-based;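 note: Cell-based assay with luminescence read-out, confirmatory dose-response testing for agonist activity of biased ligands at MC4R; human U2OS cells with tagged receptor and beta-arrestin; potency of agonists that increase receptor coupling to beta-arrestin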
Sequence of Melanocortin receptor 4 (P32245 whole entry): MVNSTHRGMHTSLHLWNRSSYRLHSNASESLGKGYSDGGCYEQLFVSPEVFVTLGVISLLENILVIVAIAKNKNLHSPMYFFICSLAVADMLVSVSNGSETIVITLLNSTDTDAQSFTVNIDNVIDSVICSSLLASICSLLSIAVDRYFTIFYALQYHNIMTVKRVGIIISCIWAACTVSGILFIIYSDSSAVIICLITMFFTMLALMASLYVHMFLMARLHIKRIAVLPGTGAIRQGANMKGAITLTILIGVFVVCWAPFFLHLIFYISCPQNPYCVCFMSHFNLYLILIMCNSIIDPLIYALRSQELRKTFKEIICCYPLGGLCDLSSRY

[20] = Luminescence Cell-Based Dose Confirmation HTS to Identify Activators of 5'UTR Stem-Loop Driven Alpha-Synuclein mRNA Translation in H4 Neuroglioblastoma Cells. [Related pubchem assays: 1829 (Project Summary), 1814 (Primary HTS)]; format: functional
H4 = experiment: Luminescence Cell-Based Dose Response HTS to Identify Activators of 5'UTR Stem-Loop Driven Prion Protein mRNA Translation in H4 Neuroglioblastoma Cells. [Related pubchem assays: 1829 (Project Summary), 1814 (Primary HTS)]; format: functional; conditions: Homo sapiens
[21] = Luminescence Cell-Based Dose Response HTS to Identify Activators of Luciferase Translation or Activity in H4 […] Cells. [Related pubchem assays: 1829 (Project Summary), 1814 (Primary HTS)]; format: functional
Streptococcus = experiment: GAS UMAA2166 growth inhibition – luminescence, BacTiterGlo, counter-screen for streptokinase expression inhibitor project, dose response (AID 1915); format: functional, organism-based;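 note: potency for reduction of bacterial viability or growth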
[22] = system: Streptococcus sp. 'group A'; experiment: Streptococcus pyogenes SK(-)GAS viability under kanamycin – luminescence, BacTiterGlo, confirmation, counter-screen for streptokinase expression inhibitor project, dose response (AID 1900); format: functional, organism-based
[23] = biological target: Heat shock protein HSP 90-alpha (Homo sapiens, UniProt P07900); format: functional, organism-based
Streptokinase A = biological target: T6, Streptokinase A (Streptococcus pyogenes serotype M1, UniProt P10520); experiment: viability-normalized secreted streptokinase activity reduction – plasminogen activation absorbance, OD405, dose response (AID 1914); format: functional, Streptococcus pyogenes M1 GAS;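 note: secreted streptokinase activity via plasminogen activation per viability signal from cell pellet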
T6 sequence (P10520 whole entry): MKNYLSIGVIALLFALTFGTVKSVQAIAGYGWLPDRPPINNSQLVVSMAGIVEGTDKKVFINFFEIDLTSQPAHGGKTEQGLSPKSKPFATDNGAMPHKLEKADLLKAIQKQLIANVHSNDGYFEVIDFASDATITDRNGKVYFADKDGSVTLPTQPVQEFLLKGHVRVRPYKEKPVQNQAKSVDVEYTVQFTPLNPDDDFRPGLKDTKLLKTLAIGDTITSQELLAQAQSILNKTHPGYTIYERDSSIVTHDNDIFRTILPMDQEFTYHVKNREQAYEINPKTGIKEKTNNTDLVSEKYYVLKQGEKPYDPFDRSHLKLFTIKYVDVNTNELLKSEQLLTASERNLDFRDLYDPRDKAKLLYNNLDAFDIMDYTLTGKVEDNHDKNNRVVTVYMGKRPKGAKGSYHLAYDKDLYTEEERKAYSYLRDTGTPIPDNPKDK

Sequence of Protein Wnt-3a (P27467 whole entry): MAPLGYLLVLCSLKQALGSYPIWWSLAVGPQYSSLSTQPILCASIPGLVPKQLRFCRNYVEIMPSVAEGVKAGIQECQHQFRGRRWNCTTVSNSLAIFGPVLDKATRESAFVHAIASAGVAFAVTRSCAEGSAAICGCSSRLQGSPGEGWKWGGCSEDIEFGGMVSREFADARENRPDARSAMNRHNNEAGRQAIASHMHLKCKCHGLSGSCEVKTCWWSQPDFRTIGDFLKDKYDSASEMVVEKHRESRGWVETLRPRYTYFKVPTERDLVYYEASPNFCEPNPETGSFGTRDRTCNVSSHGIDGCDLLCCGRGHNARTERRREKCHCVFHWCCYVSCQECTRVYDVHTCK

SMILES: Cc1cc(C)nc(NC(N)=Nc2ccccc2-c2ccccc2)n1
- IC50 (Protein Wnt-3a): 16.9 µM (active)
- IC50 [1]: > 80 µM (inactive)

SMILES: O=C(CCC(=O)Nc1ccc(F)cc1)N/N=C/c1c[nH]c2ccccc12
- AC50 [2]: 49 µM (active)

SMILES: Cc1ccnc(Nc2nc3ccccc3s2)n1
- EC50 [3]: > 91.2 µM (inactive)
- EC50 [4]: > 91.2 µM (inactive)

SMILES: CCC(C(=O)NCCC(C)C)n1ccc2cc(S(=O)(=O)N3CCCCC3)ccc21 (configuration not stated)
- IC50 (Protein Wnt-3a): 5.14 µM (active)

SMILES: O=C(Nc1nnc(-c2ccc3c(c2)CCCC3)o1)c1ccccc1
- AC50 [5]: 4.89 µM (active)
- IC50 (H9c2): > 79 µM (inactive)
- CC50 (Vero): > 25 µM (active)
- EC50 [6]: > 160 µM (inactive)
- EC50 [7]: 0.229 µM (active)
- EC50 [8]: 4.72 µM (active)
- EC50 [9]: > 180 µM (inactive)
- EC50 [10]: 3.25 µM (active)

SMILES: C/C(=N\Nc1ccc(C#N)cc1[N+](=O)[O-])c1ccc(O)cc1
- IC50 [11]: 155 µM (inactive)

SMILES: Cc1cc(C)nc(NS(=O)(=O)c2ccc(NC(=S)NC(=O)C3CCCC3)cc2)n1
- AC50 [12]: 11.1 µM (active)

SMILES: Cc1ccc(C(=O)Nc2nnc(-c3ccccc3)o2)cc1C
- AC50 [5]: 14.2 µM (active)

SMILES: Cn1cnnc1SCC(=O)Nc1ccc(OCc2ccccc2)cc1
- IC50 [13]: > 66.6 µM (inactive)
- IC50 [14]: 32 µM (inactive)

SMILES: Cc1cc(C)n(-c2nc3ccccc3c(=O)n2OCC#N)n1
- EC50 (cells [15]): 137 µM (active)
- EC50 (cells [16]): 28.9 µM (active)
- AC50 [5]: 0.881 µM (active)
- CC50 (Vero): 8.68 µM (active)
- EC50 [6]: 150 µM (active)
- EC50 [7]: 0.727 µM (active)
- EC50 [8]: > 150 µM (inactive)
- EC50 [9]: > 180 µM (inactive)
- EC50 [17]: 1.14 µM (active)
- AC50 (INS1): 4.13 µM (active)
- EC50 [18]: 4.32 µM (active)

SMILES: CC(=O)c1cn(CCOc2ccccc2C)c2ccccc12
- IC50 (Protein Wnt-3a): 3.66 µM (active)
- IC50 [19]: 8.92 µM (active)

SMILES: Cc1nnnn1/C(=C\c1ccccc1)C(=O)OCC(=O)Nc1ccc(Cl)cc1F
- EC50 (Melanocortin receptor 4): > 89.2 µM (inactive)
- EC50 [20]: > 120 µM (not active)
- EC50 (H4): 5.56 µM (active)
- EC50 [21]: > 60 µM (not active)

SMILES: O=C(NNc1nc2ccc(Cl)cc2s1)c1cc(-c2cccs2)nc2ccccc12
- EC50 (Streptococcus): 5.79 µM (active)
- EC50 [22]: 0.472 µM (active)
- EC50 [6]: 19.7 µM (active)
- EC50 [7]: 0.433 µM (active)
- EC50 [8]: 12.8 µM (active)
- EC50 [9]: > 180 µM (inactive)
- AC50 [23]: 2.18 µM (active)
- EC50 (Streptokinase A): > 150 µM (not active)

SMILES: CCc1cccc2c(C(=O)COC(=O)c3cccc(S(=O)(=O)N(C)C4CCCCC4)c3)c[nH]c12
- AC50 [2]: 30.6 µM (active)

SMILES: Nc1nc2ccccc2n1/N=C/c1ccc2c(c1)OCO2
- IC50 [11]: 45.6 µM (inactive)

SMILES: COc1ccc2sc(-c3ccc(S(C)(=O)=O)cc3)c(C#Cc3cncn3C)c2c1
- EC50 (Melanocortin receptor 4): > 89.2 µM (inactive)

— ChEMBL document CHEMBL1201862, “PubChem BioAssay data set” (2004)
